Results from PubChem BioAssay AID1963975 (Molecular Pharmacology Branch, DTP, NCI, 2024).

Tested on: 624824-186-R-J2-PDC multicell spheroids, viability
Assay: Anticancer human tumor 624824-186-R-J2-PDC patient-derived colon adenocarcinoma cell line growth inhibition [PI3K]
Details: for IC50: curve of first compound; for viability, T/C: stronger effect = lower value
Summary of the method: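 Agents were dosed from a top concentration near clinical Cmax (otherwise 10 microM) in half-log decrements, alone or combined with PI3K inhibitors. The spheroids contain tumor cells plus endothelial (HUVEC) and MSC stroma; viability is measured.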

[1] = second compound 0.0316 µM, first compound 0.0316 µM
[2] = second compound 0.0316 µM, first compound 0.1 µM
[3] = second compound 0.1 µM, first compound 0.0316 µM
[4] = second compound 0.1 µM, first compound 0.1 µM
[5] = second compound 0.316 µM, first compound 0.0316 µM
[6] = second compound 0.316 µM, first compound 0.1 µM
[7] = second compound 1 µM, first compound 0.0316 µM
[8] = second compound 1 µM, first compound 0.1 µM
[9] = second compound 3.16 µM, first compound 0.0316 µM
[10] = second compound 3.16 µM, first compound 0.1 µM
[11] = second compound 10 µM, first compound 0.0316 µM
[12] = second compound 10 µM, first compound 0.1 µM
[13] = second compound 0.0316 µM, first compound 0.316 µM
[14] = second compound 0.0316 µM, first compound 1 µM
[15] = second compound 0.0316 µM, first compound 3.16 µM
[16] = second compound 0.0316 µM, first compound 10 µM
[17] = second compound 0.1 µM, first compound 0.316 µM
[18] = second compound 0.1 µM, first compound 1 µM
[19] = second compound 0.1 µM, first compound 3.16 µM
[20] = second compound 0.1 µM, first compound 10 µM
[21] = second compound 0.316 µM, first compound 0.316 µM
[22] = second compound 0.316 µM, first compound 1 µM
[23] = second compound 0.316 µM, first compound 3.16 µM
[24] = second compound 0.316 µM, first compound 10 µM
[25] = second compound 1 µM, first compound 0.316 µM
[26] = second compound 1 µM, first compound 1 µM
[27] = second compound 1 µM, first compound 3.16 µM
[28] = second compound 1 µM, first compound 10 µM
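Note: spheroids exposed to agents for 7 days before viability read.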
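Throughout, for viability, T/C: 100% = DMSO vehicle treated spheroids.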

## Cn1ncnc1[C@H]1c2n[nH]c(=O)c3cc(F)cc(c23)N[C@@H]1c1ccc(F)cc1 + CC(Nc1ncnc2nc[nH]c12)c1cc2cccc(Cl)c2c(=O)n1-c1ccccc1
Second compound 0.0316 µM
  IC50: > 0.1 µM
Second compound 0.1 µM
  IC50: > 0.1 µM
Second compound 0.316 µM
  IC50: > 0.1 µM
Second compound 1 µM
  IC50: > 0.1 µM
Second compound 3.16 µM
  IC50: > 0.1 µM
Second compound 10 µM
  IC50: > 0.1 µM
Second compound 0.0316 µM, first compound 0.000316 µM
  viability, T/C: 82.5%
Second compound 0.0316 µM, first compound 0.001 µM
  viability, T/C: 85.3%
Second compound 0.0316 µM, first compound 0.00316 µM
  viability, T/C: 87.6%
Second compound 0.0316 µM, first compound 0.01 µM
  viability, T/C: 89%
[1]
  viability, T/C: 75.7%
[2]
  viability, T/C: 86%
Second compound 0.1 µM, first compound 0.000316 µM
  viability, T/C: 94.6%
Second compound 0.1 µM, first compound 0.001 µM
  viability, T/C: 85%
Second compound 0.1 µM, first compound 0.00316 µM
  viability, T/C: 89.5%
Second compound 0.1 µM, first compound 0.01 µM
  viability, T/C: 94.1%
[3]
  viability, T/C: 82.8%
[4]
  viability, T/C: 103%
Second compound 0.316 µM, first compound 0.000316 µM
  viability, T/C: 115%
Second compound 0.316 µM, first compound 0.001 µM
  viability, T/C: 102%
Second compound 0.316 µM, first compound 0.00316 µM
  viability, T/C: 96.5%
Second compound 0.316 µM, first compound 0.01 µM
  viability, T/C: 87.5%
[5]
  viability, T/C: 110%
[6]
  viability, T/C: 86.2%
Second compound 1 µM, first compound 0.000316 µM
  viability, T/C: 72.6%
Second compound 1 µM, first compound 0.001 µM
  viability, T/C: 90.8%
Second compound 1 µM, first compound 0.00316 µM
  viability, T/C: 81.7%
Second compound 1 µM, first compound 0.01 µM
  viability, T/C: 89.4%
[7]
  viability, T/C: 81.4%
[8]
  viability, T/C: 97.8%
Second compound 3.16 µM, first compound 0.000316 µM
  viability, T/C: 91.1%
Second compound 3.16 µM, first compound 0.001 µM
  viability, T/C: 94%
Second compound 3.16 µM, first compound 0.00316 µM
  viability, T/C: 94.2%
Second compound 3.16 µM, first compound 0.01 µM
  viability, T/C: 92.1%
[9]
  viability, T/C: 83.5%
[10]
  viability, T/C: 78.1%
Second compound 10 µM, first compound 0.000316 µM
  viability, T/C: 88.5%
Second compound 10 µM, first compound 0.001 µM
  viability, T/C: 85.6%
Second compound 10 µM, first compound 0.00316 µM
  viability, T/C: 106%
Second compound 10 µM, first compound 0.01 µM
  viability, T/C: 106%
[11]
  viability, T/C: 100%
[12]
  viability, T/C: 88.4%

## CCCS(=O)(=O)Nc1ccc(F)c(C(=O)c2c[nH]c3ncc(-c4ccc(Cl)cc4)cc23)c1F + Cc1nc(NC(=O)N2CCCC2C(N)=O)sc1-c1ccnc(C(C)(C)C(F)(F)F)c1
Second compound 0.0316 µM
  IC50: > 10 µM
Second compound 0.1 µM
  IC50: 7.11 µM
Second compound 0.316 µM
  IC50: 6.6 µM
Second compound 1 µM
  IC50: 5.13 µM
Second compound 3.16 µM
  IC50: 1.04 µM
Second compound 10 µM
  IC50: 0.455 µM
[1]
  viability, T/C: 68%
[2]
  viability, T/C: 77.2%
[13]
  viability, T/C: 61.6%
[14]
  viability, T/C: 76.8%
[15]
  viability, T/C: 87.3%
[16]
  viability, T/C: 42.2%
[3]
  viability, T/C: 84%
[4]
  viability, T/C: 64.8%
[17]
  viability, T/C: 61.2%
[18]
  viability, T/C: 91.9%
[19]
  viability, T/C: 96.5%
[20]
  viability, T/C: 37.7%
[5]
  viability, T/C: 72.3%
[6]
  viability, T/C: 72.7%
[21]
  viability, T/C: 53.8%
[22]
  viability, T/C: 73.1%
[23]
  viability, T/C: 78.1%
[24]
  viability, T/C: 38.9%
[7]
  viability, T/C: 74.6%
[8]
  viability, T/C: 50.7%
[25]
  viability, T/C: 54.4%
[26]
  viability, T/C: 65.6%
[27]
  viability, T/C: 75.9%
[28]
  viability, T/C: 30.4%
[9]
  viability, T/C: 79.6%
[10]
  viability, T/C: 60.6%
Second compound 3.16 µM, first compound 0.316 µM
  viability, T/C: 56.4%
Second compound 3.16 µM, first compound 1 µM
  viability, T/C: 51.7%
Second compound 3.16 µM, first compound 3.16 µM
  viability, T/C: 52%
Second compound 3.16 µM, first compound 10 µM
  viability, T/C: 23.2%
[11]
  viability, T/C: 58.7%
[12]
  viability, T/C: 50%
Second compound 10 µM, first compound 0.316 µM
  viability, T/C: 49.9%
Second compound 10 µM, first compound 1 µM
  viability, T/C: 45.1%
Second compound 10 µM, first compound 3.16 µM
  viability, T/C: 41.1%
Second compound 10 µM, first compound 10 µM
  viability, T/C: 19%

## C#Cc1c(F)ccc2cc(O)cc(-c3ncc4c(N5CC6CCC(C5)N6)nc(OCC56CCCN5CC(F)C6)nc4c3F)c12 (stereo unspecified) + COc1c(OCCCN2CCOCC2)ccc2c3n(c(=NC(=O)c4cnc(N)nc4)nc12)CCN3
Second compound 0.00316 µM
  IC50: > 10 µM
Second compound 0.01 µM
  IC50: > 10 µM
Second compound 0.0316 µM
  IC50: > 10 µM
Second compound 0.1 µM
  IC50: > 10 µM
Second compound 0.316 µM
  IC50: > 10 µM
Second compound 1 µM
  IC50: 6.78 µM
Second compound 0.00316 µM, first compound 0.0316 µM
  viability, T/C: 89.2%
Second compound 0.00316 µM, first compound 0.1 µM
  viability, T/C: 101%
Second compound 0.00316 µM, first compound 0.316 µM
  viability, T/C: 73.6%
Second compound 0.00316 µM, first compound 1 µM
  viability, T/C: 91.6%
Second compound 0.00316 µM, first compound 3.16 µM
  viability, T/C: 87.9%
Second compound 0.00316 µM, first compound 10 µM
  viability, T/C: 80.8%
Second compound 0.01 µM, first compound 0.0316 µM
  viability, T/C: 92.8%
Second compound 0.01 µM, first compound 0.1 µM
  viability, T/C: 90.2%
Second compound 0.01 µM, first compound 0.316 µM
  viability, T/C: 89.8%
Second compound 0.01 µM, first compound 1 µM
  viability, T/C: 78.5%
Second compound 0.01 µM, first compound 3.16 µM
  viability, T/C: 89.9%
Second compound 0.01 µM, first compound 10 µM
  viability, T/C: 95.4%
[1]
  viability, T/C: 94.3%
[2]
  viability, T/C: 77.2%
[13]
  viability, T/C: 92.6%
[14]
  viability, T/C: 77.5%
[15]
  viability, T/C: 80.6%
[16]
  viability, T/C: 81.5%
[3]
  viability, T/C: 78.8%
[4]
  viability, T/C: 76.9%
[17]
  viability, T/C: 66.2%
[18]
  viability, T/C: 68.3%
[19]
  viability, T/C: 72.8%
[20]
  viability, T/C: 72.2%
[5]
  viability, T/C: 72.6%
[6]
  viability, T/C: 59.4%
[21]
  viability, T/C: 65%
[22]
  viability, T/C: 60.4%
[23]
  viability, T/C: 58.5%
[24]
  viability, T/C: 56.4%
[7]
  viability, T/C: 60.1%
[8]
  viability, T/C: 59.9%
[25]
  viability, T/C: 52.9%
[26]
  viability, T/C: 56%
[27]
  viability, T/C: 50.8%
[28]
  viability, T/C: 49.3%
